Measurements taken from patent US20230339854A1, “Negative Allosteric Modulation of GluN3-Containing N-Methyl-D-Aspartate Receptors” (Emory University, priority 2020, published 2023).
Where “and” joins values, the source holds several entries; their conditions need not be identical. Identical values can stand only once. Like-named read-outs stand apart in the source and are kept apart here.

What was measured:
GluA1-4 AMPA receptors = assay: AMPA receptors in Xenopus oocytes (selectivity); assay type: cell-based, rat, human; details: 20 μM
[1] = biological target: T1, human GluN1^FA,TL/GluN3A receptors (Homo sapiens, UniProt Q8TCU5); assay: Two-electrode voltage-clamp recordings of GluN1^FA,TL/GluN3A receptors in Xenopus oocytes; assay type: cell-based; details: for % Inhibition GluN1^FATL/GluN3A: fitted maximum at saturating test compound
T1 construct: Human GluN3A (NP_597702.2) and rat GluN3B (NP_579842.2) were synthesized and subcloned into SP6 plasmids; expressed in transfected cells; host or cells: Xenopus laevis oocytes, cRNA injection (GluN1:GluN3 1:3)
In short: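 Human GluN1 with human GluN3A cRNA (1:3) in oocytes, recorded 2-5 days post-injection at 23° C, holding −40 mV, in Ba2+-containing recording solution pH 7.4. Compounds screened at 10 or 30 μM; those inhibiting >20% given concentration-response fits for IC50, Hill slope and residual inhibition.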

[2] = In vivo pharmacokinetics and brain penetration in mice; design: species or system mouse
Experimental: EU1180-438 was dosed at 20 mg/kg intraperitoneal in seven freely-fed male C57BL/6 mice. EU1180-438 was formulated in 5% DMA, 10% PEG, 30% HPBCD, qs to volume w/water.
Plasma was sampled at seven points: pre-dose, 0.25, 0.5, 1, 2, 4, and 8 hours (n=3 per time point, 21 plasma samples per treatment group). […] Samples were analyzed via LC-MS/MS to quantify the amount of parent compound present in each sample.
EU1180-438 was tested in male C57BL/6 mice for brain penetrability. After a single intraperitoneal dose of 20 mg/kg the concentration of EU1180-438 in the plasma was measured. […] The concentration of EU1180-438 in the brain was also measured to determine if the compound can pass the blood-brain barrier. The compound was detected in the brain tissue up to 8 hours after dosage administration.

[3] = biological target: T2, human GluN1/GluN3A receptors (Homo sapiens, UniProt Q8TCU5); assay: Two-electrode voltage-clamp recordings of GluN1/GluN3A receptors in the presence of CGP-78608 (Xenopus oocytes); assay type: cell-based
T2 construct: Human GluN3A (NP_597702.2) and rat GluN3B (NP_579842.2) were synthesized and subcloned into SP6 plasmids; expressed in transfected cells; host or cells: Xenopus laevis oocytes, cRNA injection
Excerpt: (§1) cDNA encoding human wild-type (WT) GluN1-1a (GenBank accession numbers NP_015566, hereafter GluN1) and rat GluN1-1a (NP_058706.1) were synthesized and subcloned into pGEMHE plasmid; some experiments used the rat splice variant GluN1-4a (NP_001257531.1). Human GluN3A (NP_597702.2) and rat GluN3B (NP_579842.2) were synthesized and subcloned into SP6 plasmids. For most experiments, human GluN1 was co-expressed with human GluN3A, except for mutagenesis experiments where rat GluN1 was co-expressed with human GluN3A. Rat GluN1-4a was always expressed with rat GluN3B.
(§2) Defolliculated Xenopus laevis oocytes (stage V-VI) were obtained from Ecocyte BioScience (Austin, Texas), or prepared from commercially available Xenopus ovaries (Xenopus 1, Dexter, MI) as previously described (Hansen, et al., Mol. Pharmacol., 2013). A Drummond Nanoject II (Broomall, PA) was used to inject oocytes with cRNAs encoding GluN1 and GluN3 at a 1:3 ratio in RNase-free water. The cRNA was diluted as needed to give responses with amplitudes ranging between 200-2000 nA (0.2-10 ng total cRNA). Following cRNA injection, the oocytes were stored at 15-19° C. in Barth's solution that contained (in mM) 88 NaCl, 2.4 NaHCO3, 1 KCl, 0.33 Ca(NO3)2, 0.41 CaCl2), 0.82 MgSO4, and 5 Tris-HCl (pH 7.4 with NaOH), supplemented with 1 μg/ml streptomycin (Invitrogen, Carlsbad, CA) and 100 μg/ml gentamicin (Fisher Scientific, Pittsburgh, PA). Recordings were performed 2-5 days following cRNA microinjection at room temperature (23° C.) using a two-electrode voltage-clamp amplifier (OC725, Warner Instrument, Hamilton, CT). The signal was low-pass filtered at 10-20 Hz (4-pole, −3 dB Bessel) and digitized at the Nyquist rate using PCI-6025E or USB-6212 BNC data acquisition boards (National Instruments, Austin, TX) using EasyOocyte (http://www.easyoocyte.io/). Oocytes were placed in a custom-made chamber and continuously perfused (2.5 ml/min) with oocyte recording solution containing (in mM) 90 NaCl, 1 KCl, 10 HEPES, 0.5-1.0 BaCl2, and 0.01 EDTA (pH 7.4 with NaOH). Solutions were applied by gravity, and solution exchange was controlled through a rotary valve (Hamilton, Reno, NV). Recording electrodes were filled with 0.3-3.0 M KCl, and current responses were recorded at a holding potential of −40 mV.
(§3) Response (%)=(100−minimum)/(1+([concentration]/IC50)^nH)+minimum (2) • where nH is the Hill slope, IC50 is the concentration that produces a half-maximal effect, and minimum is the degree of residual inhibition at a saturating concentration of the negative allosteric modulator.

[4] = biological target: T3, human GluN1/GluN3A receptors (Homo sapiens, UniProt Q05586+Q8TCU5); assay: as above; assay type: cell-based; details: pH 7.4; 0.5 μM CGP-78608; read-out: EC50, (95% CI) GluN1/GluN3A + CGP
T3 construct: Human GluN3A (NP_597702.2) and rat GluN3B (NP_579842.2) were synthesized and subcloned into SP6 plasmids; expressed in transfected cells; host or cells: Xenopus laevis oocytes, cRNA injection
Excerpt: as §1, §2, §3

[5] = mice, 20 mg/kg intraperitoneal, 0.25 hour, 20 mg/kg
[6] = mice, 20 mg/kg intraperitoneal, 1 hour, 20 mg/kg
[7] = mice, 20 mg/kg intraperitoneal, 8 hour, 20 mg/kg
[8] = 500 nM CGP-78608 plus 100 μM glycine

T2 sequence (Q8TCU5 24-1115, other chains not shown): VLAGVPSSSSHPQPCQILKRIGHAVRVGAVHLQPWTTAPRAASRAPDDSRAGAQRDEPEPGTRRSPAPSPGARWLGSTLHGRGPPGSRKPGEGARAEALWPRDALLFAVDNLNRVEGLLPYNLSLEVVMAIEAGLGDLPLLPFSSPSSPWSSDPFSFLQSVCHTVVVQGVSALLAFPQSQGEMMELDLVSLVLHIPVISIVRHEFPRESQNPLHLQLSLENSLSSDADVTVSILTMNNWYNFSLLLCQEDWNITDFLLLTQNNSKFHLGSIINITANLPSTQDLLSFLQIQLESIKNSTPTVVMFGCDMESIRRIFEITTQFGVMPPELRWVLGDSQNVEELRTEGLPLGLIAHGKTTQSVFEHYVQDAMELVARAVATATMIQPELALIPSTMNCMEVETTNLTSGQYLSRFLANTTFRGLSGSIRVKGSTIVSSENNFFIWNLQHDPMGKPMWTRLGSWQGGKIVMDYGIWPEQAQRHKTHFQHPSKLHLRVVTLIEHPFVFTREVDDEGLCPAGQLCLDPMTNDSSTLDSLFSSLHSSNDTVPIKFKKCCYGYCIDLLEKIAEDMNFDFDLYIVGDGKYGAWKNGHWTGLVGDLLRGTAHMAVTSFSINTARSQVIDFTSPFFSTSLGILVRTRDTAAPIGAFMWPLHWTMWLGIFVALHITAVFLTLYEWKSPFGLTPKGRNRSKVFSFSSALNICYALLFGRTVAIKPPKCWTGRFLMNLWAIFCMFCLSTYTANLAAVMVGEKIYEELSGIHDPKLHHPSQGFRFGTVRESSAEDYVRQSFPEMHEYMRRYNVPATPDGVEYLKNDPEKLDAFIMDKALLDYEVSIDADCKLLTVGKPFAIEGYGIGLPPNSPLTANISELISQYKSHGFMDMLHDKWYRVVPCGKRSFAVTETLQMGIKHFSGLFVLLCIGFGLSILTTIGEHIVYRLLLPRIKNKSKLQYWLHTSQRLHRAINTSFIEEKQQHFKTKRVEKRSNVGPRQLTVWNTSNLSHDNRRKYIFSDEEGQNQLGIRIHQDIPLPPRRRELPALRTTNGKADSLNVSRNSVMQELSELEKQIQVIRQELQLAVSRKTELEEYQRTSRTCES
T1 sequence (Q8TCU5 24-1115, other chains not shown): as above
T3 sequence (Q8TCU5 24-1115, other chains not shown): as above

SMILES: COc1ccc(OCC(c2ccc(OC)cc2)N2Cc3ccccc3C2=O)cc1 (racemic) [EU1180-438, 2-(2-(4-methoxyphenoxy)-1-(4-methoxyphenyl)ethyl)isoindolin-1-one]
- activity at GluA1-4 AMPA receptors (GluA1-4 AMPA receptors): virtually no activity
- effect of increasing glycine concentration on inhibition [1]: not altered by increasing glycine concentration
- voltage dependence of inhibition (current-voltage relationship) ([1]; 4 μM compound): no effect of holding voltage on EU1180-438 inhibition
- Slope ([1]; concentration-response curve, 1000 μM glycine): 1.24
- % Inhibition GluN1^FATL/GluN3A ([1]; pH 6.8): 72%^a, (n = 7)
- % Inhibition GluN1^FATL/GluN3A ([1]; pH 7.4): 82%, (n = 18)
- maximal inhibition at saturating concentrations ([1]; pH 6.8): 72%
- IC50 ([1]; pH 6.8, holding potential −40 mV, read-out: EC50, (95% CI) GluN1^FATL/GluN3A): 4.2 µM
- IC50 ([1]; pH 6.8, read-out: IC50): 4.2 µM
- inhibition at a saturating concentration ([1]; pH 7.4): 82%
- IC50 ([1]; pH 7.4, holding potential −40 mV, read-out: EC50, (95% CI) GluN1^FATL/GluN3A): 3.5 µM
- remaining activity at 10 µM ([1]; read-out: response in the presence of compound, % of control): 29 ± 4.2%
- minimum ([1]; residual response at saturating concentration, 1000 μM glycine): 18%
- IC50 ([1]; responses activated by 1000 μM glycine, pH 7.4, read-out: IC50): 3.5 µM
- time after dosage up to which compound was detected in brain tissue ([2]; male C57BL/6 mice, 20 mg/kg intraperitoneal): up to 8 hours
- max concentration in plasma ([2]; male C57BL/6 mice, single intraperitoneal dose of 20 mg/kg): 2.75 µM
- concentration at 0.25 h ([2]; male, C57BL/6, mouse, brain, ip, 20 mg/kg, mice, 20 mg/kg intraperitoneal, 0.25 hour, read-out: Brain Concentration): 3680 nM
- Kp at 0.25 h ([2]; male, C57BL/6, mouse, brain, ip, 20 mg/kg, mice, 20 mg/kg intraperitoneal, 0.25 hour, read-out: Brain to Plasma Ratio): 1.6
- Kp at 0.25 h ([2]; male, C57BL/6, mouse, brain, ip, 20 mg/kg, mice, 20 mg/kg intraperitoneal, 0.25 hour, read-out: Mean Ratio (brain to plasma)): 1.74
- concentration at 1 h ([2]; male, C57BL/6, mouse, brain, ip, 20 mg/kg, mice, 20 mg/kg intraperitoneal, 1 hour, read-out: Brain Concentration): 1960 nM
- Kp at 1 h ([2]; male, C57BL/6, mouse, brain, ip, 20 mg/kg, mice, 20 mg/kg intraperitoneal, 1 hour, read-out: Brain to Plasma Ratio): 1.57
- Kp at 1 h ([2]; male, C57BL/6, mouse, brain, ip, 20 mg/kg, mice, 20 mg/kg intraperitoneal, 1 hour, read-out: Mean Ratio (brain to plasma)): 1.79
- concentration at 2 h ([2]; male, C57BL/6, mouse, brain, ip, 20 mg/kg, mice, 20 mg/kg intraperitoneal, 2 hour, read-out: Brain Concentration): 1050 nM
- Kp at 2 h ([2]; male, C57BL/6, mouse, brain, ip, 20 mg/kg, mice, 20 mg/kg intraperitoneal, 2 hour, read-out: Mean Ratio (brain to plasma)): 0.88
- concentration at 8 h ([2]; male, C57BL/6, mouse, brain, ip, 20 mg/kg, mice, 20 mg/kg intraperitoneal, 8 hour, read-out: Brain Concentration): 60 nM
- Kp at 8 h ([2]; male, C57BL/6, mouse, brain, ip, 20 mg/kg, mice, 20 mg/kg intraperitoneal, 8 hour, read-out: Brain to Plasma Ratio): 1.37
- Kp at 8 h ([2]; male, C57BL/6, mouse, brain, ip, 20 mg/kg, mice, 20 mg/kg intraperitoneal, 8 hour, read-out: Mean Ratio (brain to plasma)): 1.02
- concentration at 0.25 h ([2]; male, C57BL/6, mouse, plasma, ip, 20 mg/kg, mice, 20 mg/kg intraperitoneal, 0.25 hour, read-out: Plasma Concentration): 2300 nM
- concentration at 1 h ([2]; male, C57BL/6, mouse, plasma, ip, 20 mg/kg, mice, 20 mg/kg intraperitoneal, 1 hour, read-out: Plasma Concentration): 1250 nM
- concentration at 2 h ([2]; male, C57BL/6, mouse, plasma, ip, 20 mg/kg, mice, 20 mg/kg intraperitoneal, 2 hour, read-out: Plasma Concentration): 890 nM
- concentration at 8 h ([2]; male, C57BL/6, mouse, plasma, ip, 20 mg/kg, mice, 20 mg/kg intraperitoneal, 8 hour, read-out: Plasma Concentration): 50 nM
- Brain to Plasma Ratio [2, 5]: 1.98 and 1.64
- Plasma Concentration [2, 5]: 2050 nM and 2210 nM
- concentration at 0.25 h ([2]; mice, 20 mg/kg intraperitoneal, 0.25 hour, 20 mg/kg, read-out: Brain Concentration): 4060 nM and 3630 nM
- Brain to Plasma Ratio [2, 6]: 1.96 and 1.83
- Plasma Concentration [2, 6]: 1040 nM and 1170 nM
- concentration at 0.25 h ([2]; mice, 20 mg/kg intraperitoneal, 1 hour, 20 mg/kg, read-out: Brain Concentration): 2040 nM and 2140 nM
- Plasma Concentration ([2]; mice, 20 mg/kg intraperitoneal, 2 hour, 20 mg/kg): 920 nM and 960 nM
- concentration at 0.25 h ([2]; mice, 20 mg/kg intraperitoneal, 2 hour, 20 mg/kg, read-out: Brain Concentration): 660 nM and 690 nM
- Brain to Plasma Ratio [2, 7]: 0.90 and 0.72
- Plasma Concentration [2, 7]: 40 nM
- concentration at 0.25 h ([2]; mice, 20 mg/kg intraperitoneal, 8 hour, 20 mg/kg, read-out: Brain Concentration): 40 nM and 30 nM
- half-life ([2]; mouse, ip, plasma, male C57BL/6 mice, 20 mg/kg intraperitoneal): 1.57 h
- maximal inhibition ([3]; 500 nM CGP-78608): 85%
- Slope [3, 8]: 1.5
- minimum [3, 8]: 15%
- % Inhibition GluN1/GluN3A + CGP ([3]; fitted maximum at saturating test compound, pH 7.4, 0.5 μM CGP-78608): 85%, (n = 9)
- EC50 [4]: 1.8 µM
